Values of other authors in US5385929A, “[(Hydroxyphenylamino) carbonyl] pyrroles” (Warner-Lambert Company, priority 1994, dated 1995).

Test system: biosynthesis of cholesterol
Conditions: qualitative; described in U.S. Pat. No. 5,273,995

Which “activity as a hypocholesterolemic agent” value does the source give for `CC(C)c1c(C(=O)Nc2ccccc2)c(-c2ccccc2)c(-c2ccc(F)cc2)n1CC[C@@H](O)C[C@@H](O)CC(=O)O` [Compound of Patent 5,273,995 (open form), [R-(R*,R*)]-2-(4-fluorophenyl)-β,δ-dihydroxy-5-(1-methylethyl)-3-phenyl-4-[(phenylamino)carbonyl]-1H-pyrrole-1-heptanoic acid] here?
Its value is “particularly active as a hypocholesterolemic agent”.
